{
  "source": "ChEMBL document CHEMBL5247619",
  "about": "“Novel alpha6 preferring GABA-A receptor ligands based on loreclezole” (Eur J Med Chem, 2022)",
  "key": {"[1]": {"biological_target": "Gamma-aminobutyric acid receptor subunit alpha-6/beta-3/gamma-2 (Rattus norvegicus, UniProt P18508+P30191+P63079)", "sequence (P18508 whole entry)": "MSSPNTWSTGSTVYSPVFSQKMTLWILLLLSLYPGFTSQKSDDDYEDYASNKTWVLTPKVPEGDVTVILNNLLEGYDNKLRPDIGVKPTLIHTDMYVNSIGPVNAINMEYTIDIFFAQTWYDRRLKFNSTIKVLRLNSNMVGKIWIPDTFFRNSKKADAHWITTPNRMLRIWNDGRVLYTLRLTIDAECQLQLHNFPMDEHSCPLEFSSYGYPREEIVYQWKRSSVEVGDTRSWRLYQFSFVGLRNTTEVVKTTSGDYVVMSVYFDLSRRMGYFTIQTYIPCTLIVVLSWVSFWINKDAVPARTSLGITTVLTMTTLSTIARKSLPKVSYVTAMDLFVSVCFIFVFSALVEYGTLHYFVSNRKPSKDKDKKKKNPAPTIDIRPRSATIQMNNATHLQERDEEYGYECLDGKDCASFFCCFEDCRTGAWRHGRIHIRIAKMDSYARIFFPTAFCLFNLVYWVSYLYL", "sequence (P30191 whole entry)": "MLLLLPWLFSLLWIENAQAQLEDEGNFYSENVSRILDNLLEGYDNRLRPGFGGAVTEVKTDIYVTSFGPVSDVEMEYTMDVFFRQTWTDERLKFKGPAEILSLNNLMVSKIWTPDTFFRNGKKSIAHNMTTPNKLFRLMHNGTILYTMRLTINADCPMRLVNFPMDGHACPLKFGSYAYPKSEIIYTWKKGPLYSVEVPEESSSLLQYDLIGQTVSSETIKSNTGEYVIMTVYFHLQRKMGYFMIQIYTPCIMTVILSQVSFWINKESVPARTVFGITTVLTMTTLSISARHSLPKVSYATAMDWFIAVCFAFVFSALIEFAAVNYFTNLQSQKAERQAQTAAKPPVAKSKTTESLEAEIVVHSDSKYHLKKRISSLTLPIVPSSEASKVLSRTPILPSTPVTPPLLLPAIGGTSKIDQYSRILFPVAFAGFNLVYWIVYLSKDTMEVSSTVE", "sequence (P63079 whole entry)": "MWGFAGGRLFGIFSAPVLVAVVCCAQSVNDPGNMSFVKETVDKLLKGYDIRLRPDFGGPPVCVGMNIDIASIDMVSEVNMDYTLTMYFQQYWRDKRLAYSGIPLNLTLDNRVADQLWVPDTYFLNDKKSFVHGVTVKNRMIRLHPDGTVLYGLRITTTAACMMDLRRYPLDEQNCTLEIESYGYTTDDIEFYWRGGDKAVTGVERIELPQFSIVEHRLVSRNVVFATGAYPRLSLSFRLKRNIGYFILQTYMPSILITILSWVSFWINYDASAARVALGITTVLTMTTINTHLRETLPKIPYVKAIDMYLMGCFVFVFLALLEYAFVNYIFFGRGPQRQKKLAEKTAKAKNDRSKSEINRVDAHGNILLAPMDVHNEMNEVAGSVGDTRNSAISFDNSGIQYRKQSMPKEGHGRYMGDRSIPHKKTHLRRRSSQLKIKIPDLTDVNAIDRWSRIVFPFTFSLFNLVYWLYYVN", "assay": "Modulation of rat alpha6beta3gamma2 GABA A receptor expressed in Xenopus oocytes assessed as reduction in desensitization at -80 mV holding potential by two-electrode voltage-clamp assay", "format": "cell-based"}, "[2]": {"biological_target": "Gamma-aminobutyric acid receptor subunit alpha-6/beta-3/gamma-2 (Rattus norvegicus) (UniProt P18508+P30191+P63079)", "assay": "Modulation of rat alpha6beta3gamma2 GABA A receptor expressed in Xenopus oocytes assessed as desensitization of GABA current at -80 mV holding potential at more than 300 uM by two-electrode voltage-clamp assay relative to control", "format": "cell-based", "conditions": "filed as modulator"}},
  "data": [
    {"smiles": "Cc1ccc(C(C)CC#N)c(Cl)c1", "note": "(racemic)", "values": [
      {"measurement": "EC50", "setting": "[1]", "value": 38, "unit": "µM"},
      {"measurement": "Activity", "setting": "[2]", "value": 600, "unit": "%"}
    ]},
    {"smiles": "Cc1ccc(C(C)(C)CC#N)c(Cl)c1", "values": [
      {"measurement": "EC50", "setting": "[1]", "value": 28, "unit": "µM"},
      {"measurement": "Activity", "setting": "[2]", "value": 1360, "unit": "%"}
    ]},
    {"smiles": "Cl/C(=C\\n1cncn1)c1ccc(Cl)cc1Cl", "note": "[LORECLEZOLE]", "values": [
      {"measurement": "EC50", "setting": "[1]", "value": 38, "unit": "µM"},
      {"measurement": "Activity", "setting": "[2]", "value": 600, "unit": "%"}
    ]}
  ]
}
